# Where two headings read alike, the source gives them in different places.
# Columns and labels:
# [1] = system: strains of A. baumannii and one strain of Acinetobacter sp.; experiment: MIC with sub-inhibitory concentrations (0.25x MIC) of polymyxin B, panel of Acinetobacter strains (Example 4); type: cell-based; conditions: for MIC range with PB (0.25x MIC) Oct. 1, 2008 n = 8: […] polymyxin B, ATCC 19606, A329, A390 and A473 not taken; for MIC range with PB (0.25x MIC) Oct. 14, 2008 n = 11: 0.06 μg/ml polymyxin B, all strains except the ATCC strain
# A. baumannii ATCC 19606 [2] = experiment: MIC without and with sub-inhibitory polymyxin B (Example 4); type: cell-based, Acinetobacter baumannii; conditions: A. baumannii ATCC 19606
# A. baumannii J2 [3] = experiment: as above; type: cell-based, Acinetobacter baumannii; conditions: for MIC without PB/MIC + PB: A. baumannii J2; for MIC: Acinetobacter baumannii
# A. baumannii J2 [4] = experiment: Preliminary MBC without and with sub-inhibitory polymyxin B (Example 4); type: cell-based, Acinetobacter baumannii; conditions: Acinetobacter baumannii
# [5] = system: Acinetobacter sp. (H064200250); experiment: MIC without and with sub-inhibitory polymyxin B (Example 4); type: cell-based; conditions: for MIC: Acinetobacter
# [6] = system: Acinetobacter sp. (H064200250); experiment: Preliminary MBC without and with sub-inhibitory polymyxin B (Example 4); type: cell-based; conditions: Acinetobacter, preliminary MBC
# Procedure: (§1) The plates were incubated for 18-20 hours at 37° C. The MBC was read as the lowest concentration at which colony growth was ca. 90% less than the positive control (i.e. usually where single colonies or no colonies were observed).
# A. baumannii A329 [7] = experiment: MIC without and with sub-inhibitory polymyxin B (Example 4); type: cell-based, Acinetobacter baumannii; conditions: A. baumannii A329; +0.06 μg/ml PB; 2nd experiment
# A. baumannii A329 [8] = experiment: Preliminary MBC without and with sub-inhibitory polymyxin B (Example 4); type: cell-based, Acinetobacter baumannii; conditions: Acinetobacter baumannii, A329, A. baumannii A329, +0.06 μg/ml PB, 2nd experiment, read-out: MBC
# A. baumannii A387 [9] = experiment: MIC without and with sub-inhibitory polymyxin B (Example 4); type: cell-based, Acinetobacter baumannii; conditions: for MIC without PB/MIC + PB: A. baumannii A387
# A. baumannii A387 [10] = experiment: Preliminary MBC without and with sub-inhibitory polymyxin B (Example 4); type: cell-based, Acinetobacter baumannii; conditions: Acinetobacter baumannii
# A. baumannii A14 [11] = experiment: as above; type: cell-based, Acinetobacter baumannii; conditions: A. baumannii A14, +0.06 μg/ml PB, 2nd experiment
# Procedure: as §1
# A. baumannii NCTC 13301 [12] = experiment: as above; type: cell-based, Acinetobacter baumannii; conditions: Acinetobacter baumannii
# Procedure: as §1
# A. baumannii A401 [13] = experiment: MIC without and with sub-inhibitory polymyxin B (Example 4); type: cell-based, Acinetobacter baumannii; conditions: for MIC: Acinetobacter baumannii
# A. baumannii A401 [14] = experiment: Preliminary MBC without and with sub-inhibitory polymyxin B (Example 4); type: cell-based, Acinetobacter baumannii; conditions: Acinetobacter baumannii
# A. baumannii A473 [15] = experiment: MIC without and with sub-inhibitory polymyxin B (Example 4); type: cell-based, Acinetobacter baumannii; conditions: +0.06 μg/ml PB, 2nd experiment
# A. baumannii A489 [16] = experiment: as above; type: cell-based, Acinetobacter baumannii; conditions: for MIC without PB/MIC + PB: A. baumannii A489; for MIC: Acinetobacter baumannii
# A. baumannii A489 [17] = experiment: Preliminary MBC without and with sub-inhibitory polymyxin B (Example 4); type: cell-based, Acinetobacter baumannii; conditions: Acinetobacter baumannii
# A. baumannii NCTC 13301 [18] = experiment: MIC without and with sub-inhibitory polymyxin B (Example 4); type: cell-based, Acinetobacter baumannii; conditions: for MIC: Acinetobacter baumannii, NCTC13301, read-out: MIC +[…] PB
# A. baumannii NCTC 13301 [19] = experiment: as above; type: cell-based, Acinetobacter baumannii; conditions: +[…] PB, 2nd experiment; for MIC: Acinetobacter baumannii, NCTC13301, A. baumannii NCTC 13301, read-out: MIC
# A. baumannii A14 [20] = experiment: as above; type: cell-based, Acinetobacter baumannii; conditions: 1st experiment; for MIC +0.06 μg/ml PB: +0.06 μg/ml polymyxin B
# A. baumannii A14 [21] = experiment: Preliminary MBC without and with sub-inhibitory polymyxin B (Example 4); type: cell-based, Acinetobacter baumannii; conditions: A. baumannii A14; +0.06 μg/ml polymyxin B; preliminary MBC; 1st experiment
# A. baumannii ATCC 19606 [22] = experiment: as above; type: cell-based, Acinetobacter baumannii; conditions: Acinetobacter baumannii
# A. baumannii A390 = experiment: as above; type: cell-based, Acinetobacter baumannii; conditions: Acinetobacter baumannii, A390, A. baumannii A390, +0.06 μg/ml PB, 2nd experiment, read-out: MBC
# Procedure: as §1
# A. baumannii A473 [23] = experiment: as above; type: cell-based, Acinetobacter baumannii; conditions: Acinetobacter baumannii, A473, A. baumannii A473, +0.06 μg/ml PB, 2nd experiment, read-out: MBC
# Procedure: as §1
# [24] = ratio, PB 0.06 μg/ml, 1st experiment
# [25] = J2, A. baumannii J2, +[…] PB, 2nd experiment, read-out: MIC
# [26] = J2, A. baumannii J2, +[…] PB, preliminary MBC, 2nd experiment, read-out: MBC
# [27] = Acinetobacter spp. H064200250 (OXA51), +[…] PB, 2nd experiment, read-out: MIC
# [28] = Acinetobacter spp. H064200250 (OXA51), +[…] PB, 2nd experiment, read-out: MBC
# [29] = A387, A. baumannii A387, +0.06 μg/ml PB, 2nd experiment, read-out: MBC
# [30] = NCTC13301, A. baumannii NCTC 13301, +[…] PB, preliminary MBC, 2nd experiment, read-out: MBC
# [31] = A401, A baumannii A 401, +0.06 μg/ml PB, 2nd experiment, read-out: MBC
# [32] = A489, A. baumannii A489, +[…] PB, 2nd experiment, read-out: MIC
# [33] = A489, read-out: MIC +[…] PB, A. baumannii A489, +[…] polymyxin B, 1st experiment
# [34] = A489, A. baumannii A489, +[…] PB, preliminary MBC, 2nd experiment, read-out: MBC
structure (smiles),measurement,setting,value
"C[C@H]1COc2c(N3CCN(C)CC3)c(F)cc3c(=O)c(C(=O)O)cn1c23 [Levofloxacin, reference compound]","Range ratios MIC without PB/MIC with PB Oct. 1, 2008 n = 8",[1]; 1st experiment,1-4
same,"MIC range with PB (0.25x MIC) Oct. 1, 2008 n = 8",[1]; 1st experiment,4 to 32 µg/mL
same,"Range ratios MIC without PB/MIC with PB Oct. 14, 2008 n = 11",[1]; 2nd experiment,0.5-8
same,"MIC range with PB (0.25x MIC) Oct. 14, 2008 n = 11",[1]; 2nd experiment,4 to 32 µg/mL
same,MIC without PB/MIC + PB,"A. baumannii ATCC 19606 [2]; +0.06 μg/ml PB, 2nd experiment",1
same,MIC without PB/MIC + PB,A. baumannii ATCC 19606 [2]; [24],1
same,MIC without PB/MIC + PB,"A. baumannii J2 [3]; +[…] PB, 2nd experiment",8
same,MIC without PB/MIC + PB,"A. baumannii J2 [3]; ratio, PB […], 1st experiment",4
same,MIC,A. baumannii J2 [3]; [25],4 µg/mL
same,MIC,"A. baumannii J2 [3]; J2, read-out: MIC +[…] PB, A. baumannii J2, +[…] polymyxin B, 1st experiment",8 µg/mL
same,MBC,A. baumannii J2 [4]; [26],4 µg/mL
same,MBC,"A. baumannii J2 [4]; J2, read-out: MBC +[…] PB",8 µg/mL
same,MIC without PB/MIC + PB,"[5]; Acinetobacter spp. H064200250 (OXA51), +[…] PB, 2nd experiment",2
same,MIC without PB/MIC + PB,"[5]; Acinetobacter spp. H064200250, ratio, PB […], 1st experiment",1
same,MIC,[5]; [27],8 µg/mL
same,MBC,[6]; [28],8 µg/mL
same,MIC without PB/MIC + PB,A. baumannii A329 [7],0.5
same,MBC,A. baumannii A329 [8],16 µg/mL
same,MIC without PB/MIC + PB,"A. baumannii A387 [9]; +0.06 μg/ml PB, 2nd experiment",1
same,MIC without PB/MIC + PB,A. baumannii A387 [9]; [24],1
same,MBC,A. baumannii A387 [10]; [29],4 µg/mL
same,MBC,A. baumannii A14 [11],16.00 µg/mL
same,MBC,A. baumannii NCTC 13301 [12]; [30],4 µg/mL
same,MIC without PB/MIC + PB,"A. baumannii A401 [13]; A baumannii A 401, ratio, PB 0.06 μg/ml, 1st experiment",1
same,MBC,A. baumannii A401 [14]; [31],8 µg/mL
same,MIC without PB/MIC + PB,A. baumannii A473 [15]; A. baumannii A473,1
same,MIC without PB/MIC + PB,"A. baumannii A489 [16]; +[…] PB, 2nd experiment",4
same,MIC without PB/MIC + PB,"A. baumannii A489 [16]; ratio, PB […], 1st experiment",2
same,MIC,A. baumannii A489 [16]; [32],8 µg/mL
same,MIC,A. baumannii A489 [16]; [33],8 µg/mL
same,MBC,A. baumannii A489 [17]; [34],4 µg/mL
same,MBC,"A. baumannii A489 [17]; A489, read-out: MBC +[…] PB",8 µg/mL
same,MIC without PB/MIC + PB,"A. baumannii NCTC 13301 [18]; A. baumannii NCTC 13301, ratio, PB […], 1st experiment",2
same,MIC,A. baumannii NCTC 13301 [18],16 µg/mL
same,MIC without PB/MIC + PB,A. baumannii NCTC 13301 [19]; A. baumannii NCTC 13301,4
same,MIC,A. baumannii NCTC 13301 [19],8 µg/mL
same,MIC +0.06 μg/ml PB,A. baumannii A14 [20],32 µg/mL
same,MIC without PB/MIC + PB,"A. baumannii A14 [20]; ratio, PB 0.06 μg/ml",1
same,MBC +0.06 μg/ml PB,A. baumannii A14 [21],32 µg/mL
C[C@@H](O)[C@H]1C(=O)N2C(C(=O)O)=C(S[C@@H]3CN[C@H](C(=O)N(C)C)C3)[C@H](C)[C@H]12 [Meropenem],"MIC range with PB (0.25x MIC) Oct. 1, 2008 n = 8",[1]; 1st experiment,<0.125 to 4 µg/mL
same,"MIC range with PB (0.25x MIC) Oct. 14, 2008 n = 11",[1]; 2nd experiment,≤0.125 to 32 µg/mL
same,MBC,"A. baumannii ATCC 19606 [22]; ATCC19606, A. baumannii ATCC 19606, +0.06 μg/ml PB, 2nd experiment, read-out: MBC",2 µg/mL
same,MBC,"A. baumannii ATCC 19606 [22]; ATCC19606, read-out: MBC +0.06 μg/ml PB, A. baumannii ATCC 19606, +0.06 μg/ml polymyxin B, 1st experiment",2 µg/mL
same,MIC,A. baumannii J2 [3]; [25],≤ 0.125 µg/mL
same,MBC,A. baumannii J2 [4]; [26],≤ 0.125 µg/mL
same,MBC,"A. baumannii J2 [4]; J2, read-out: MBC +[…] PB, A. baumannii J2, +[…] polymyxin B, preliminary MBC, 1st experiment",1 µg/mL
same,MIC,[5]; [27],0.25 µg/mL
same,MIC,"[5]; read-out: MIC +[…] PB, Acinetobacter spp. H064200250, +[…] polymyxin B, 1st experiment",1 µg/mL
same,MBC,[6]; [28],0.25 µg/mL
same,MBC,"[6]; read-out: MBC +[…] PB, Acinetobacter spp. H064200250, +[…] polymyxin B, 1st experiment",1 µg/mL
same,MBC,A. baumannii A329 [8],32 µg/mL
same,MIC,"A. baumannii A387 [9]; Acinetobacter baumannii, A387, read-out: MIC +0.06 μg/ml PB, A. baumannii A387, +0.06 μg/ml polymyxin B, 1st experiment",1 µg/mL
same,MBC,A. baumannii A387 [10]; [29],2 µg/mL
same,MBC,"A. baumannii A387 [10]; A387, read-out: MBC +0.06 μg/ml PB, A. baumannii A387, +0.06 μg/ml polymyxin B, 1st experiment",1 µg/mL
same,MBC,A. baumannii A14 [11],1 µg/mL
same,MBC,A. baumannii A390,2 µg/mL
same,MBC,A. baumannii A473 [23],2 µg/mL
same,MBC,A. baumannii NCTC 13301 [12]; [30],≤ 0.125 µg/mL
same,MBC,"A. baumannii NCTC 13301 [12]; NCTC13301, read-out: MBC +[…] PB",1 µg/mL
same,MIC,"A. baumannii A401 [13]; A401, A baumannii A 401, +0.06 μg/ml PB, 2nd experiment, read-out: MIC",4 µg/mL
same,MIC,"A. baumannii A401 [13]; A401, read-out: MIC +0.06 μg/ml PB, A baumannii A 401, +0.06 μg/ml polymyxin B, 1st experiment",4 µg/mL
same,MBC,A. baumannii A401 [14]; [31],4 µg/mL
same,MBC,"A. baumannii A401 [14]; A401, read-out: MBC +0.06 μg/ml PB, A baumannii A 401, +0.06 μg/ml polymyxin B, 1st experiment",4 µg/mL
same,MIC,"A. baumannii A473 [15]; Acinetobacter baumannii, A473, A. baumannii A473, read-out: MIC",2 µg/mL
same,MIC,A. baumannii A489 [16]; [32],≤ 0.125 µg/mL
same,MIC,A. baumannii A489 [16]; [33],0.5 µg/mL
same,MBC,A. baumannii A489 [17]; [34],≤ 0.125 µg/mL
same,MBC,"A. baumannii A489 [17]; A489, read-out: MBC +[…] PB, A. baumannii A489, +[…] polymyxin B, preliminary MBC, 1st experiment",0.5 µg/mL
same,MIC,A. baumannii NCTC 13301 [18],1 µg/mL
same,MIC,A. baumannii NCTC 13301 [19],0.25 µg/mL
same,MIC +0.06 μg/ml PB,A. baumannii A14 [20],0.5 µg/mL
same,MBC +0.06 μg/ml PB,A. baumannii A14 [21],0.5 µg/mL
